{"source": "paper PMC10660337", "about": "“Mutate and Conjugate: A Method to Enable Rapid In-Cell Target Validation” (ACS Chemical Biology, 2023)", "key": {"BRD4(1)": {"system": "BRD4(1)", "parameters": "method as in PMID 36378954", "details": "cited from earlier work"}, "BRD4(1)^L94C [1]": {"target": "T1, BRD4(1)^L94C (Homo sapiens, UniProt O60885, L94C)", "T1 construct": "Characterization of His6-BRD4(1)L94C; made in house; host or cells: E. coli BL21 (DE3)", "test": "Protein LCMS labeling assay 2 (diverse reactive fragment screen)", "assay_type": "binding", "details": "1 μM protein, 4 °C, 24 h", "experimental": "To investigate whether screening of an unbiased set of covalent fragments could identify ligands for BRD4(1)^L94C, we evaluated 250 previously published cysteine-reactive compounds, comprising 138 acrylamide- and 112 chloroacetamide-functionalized reactive fragments with molecular weights ranging from 152 to 300 Da.[44] Due to the higher throughput of this screening assay, the conditions varied compared to “labeling assay 1”. In this case, 1 μM BRD4(1)^L94C was incubated with either a chloroacetamide fragment (50 μM) or an acrylamide fragment (200 μM) at 4 °C for 24 h (referred to as “labeling assay 2”). Samples were then analyzed using protein LCMS, where a positive hit was classified as a single protein labeling event with a mass shift corresponding to the mass of the fragment of ±2 Da and a labeled peak of >20% intensity. Of the 250 diverse reactive compounds screened against BRD4(1)^L94C, only one chloroacetamide and one acrylamide fragment were classified as hits (Figures 5A and S10). […]\nExperiments were performed in a protein LCMS assay buffer, with 10 µM protein, and 50 µM of the desired compound with a final DMSO concentration of 0.5% (Table S16). […] Data was analysed and processed using MassLynx. […] Covalent labeling was calculated using intensities of the unlabeled and labeled protein (Equation 1). […]"}, "BRD4(1)^WT [2]": {"target": "T2, BRD4(1)^WT (Homo sapiens, UniProt O60885)", "T2 construct": "Characterization of His6-BRD4(1)WT; made in house; host or cells: E. coli BL21 (DE3)", "test": "Protein LCMS labeling assay 1", "assay_type": "binding", "details": "50 μM compound, 10 µM protein, 37 °C, 4 h; mean of three ± s.e.m.; ND = not detectable", "experimental": "Before introducing a Cys mutant into the first bromodomain of BRD4 [BRD4(1)], we wanted to rule out the possibility that the native Cys residues C125 and C136 (Figures 2A and S1), would react with electrophilic fragments. To test this, we incubated two KAc-mimicking methylisoxazole-based reactive fragments (1 and 2, Figure 2C) with purified BRD4(1)^WT.\n(§1) The resulting library of 22 fragments was screened for BRD4(1)^L94C binding at a concentration of 50 μM using a protein LCMS assay (referred to as “labeling assay 1”). […] To assess the selectivity of the fragments for the labeling of C94, hits were also screened against BRD4(1)^WT under the same conditions. […] The acrylamide-based fragment, 12, labeled 98% of BRD4(1)^L94C after 4 h. While 95% of the protein was labeled once, 3% of the protein was labeled twice (Figure 5D). […] Fragment 14, designed by appending a β-dimethylaminomethyl acrylamide to the structure of 12, led to 74% of singly labeled BRD4(1)^L94C after 4 h with no labeling of BRD4(1)^WT observed (Table 1 and Figure 5E). […] However, only 9.9% of labeled BRD4(1)^L94C was observed, substantially lower than the 56% labeling observed for the corresponding 3-methyl regioisomer 10 (Table 1). […]\n(§2) Assays were performed in 1.5 mL Eppendorf tubes at 37 °C and gently shaken, unless otherwise stated.\n(§3) Experiments were performed in a protein LCMS assay buffer, with 10 µM protein, and 50 µM of the desired compound with a final DMSO concentration of 0.5% (Table S16). Time points were taken at 0, 1 and 4 h, unless otherwise stated, where a 20 µL sample of the reaction mix was taken, diluted with 100 µL Milli-Q water, and flash frozen. Samples were thawed immediately prior to LCMS analysis on a Waters Xevo G2-S system (Waters) fitted with a ProSwift™ RP-2H PSDVB Reversed Phase HPLC Column (Thermofisher). Data was analysed and processed using MassLynx. The total ion chromatograms (TIC) were extracted (region containing protein) and the summed scans were deconvoluted (using MaxEnt). Covalent labeling was calculated using intensities of the unlabeled and labeled protein (Equation 1). Figures were made using GraphPad Prism 7.0.\n(§4) Table S16. Buffer composition for protein LCMS.\n(§5) Buffer Reagent Composition Amount per 1 L\n(§6) Protein LCMS Assay Buffer HEPES 25 mM 6.0 g\n(§7) Protein Labelling = Intensity of Labelled Peak × 100"}, "BRD4(1)^L94C [3]": {"target": "T1, BRD4(1)^L94C", "test": "AlphaScreen H4_1–20(KAc)4 peptide displacement", "assay_type": "binding", "details": "mean of three ± s.e.m.", "experimental": "Under these conditions, all three fragments displaced the peptide from BRD4(1)^L94C, which is consistent with the fragments binding to BRD4(1)^L94C in the expected location (Table 2). […] The longer the mutant protein and electrophile are incubated together, the more time there is for a covalent interaction to occur. […]\n(§8) Dose response AlphaScreen™\n(§9) The peptide (Table S17) was supplied at >95% purity by GenScript and was stored as 1 mM stocks in […]\n(§10) Table S17. Amino acid sequences of peptides used in AlphaScreen™.\n(§11) Peptide Amino Acid Sequence […]\n(§12) The assay buffer (Table S18, pH 7.6) was filtered through a 0.22 μm filter before use. The buffer is stored at 4 °C as a 5× solution without bovine serum albumin (BSA), which was added on the day of use. The compounds, proteins, and peptides were dispensed into a ProxiPlate-384 Plus (Perkin Elmer) using a Thermo-Fisher electronic multi-channel pipette. For the incubation steps, the plates were sealed, shaken for 10 seconds at 600 rpm on a plate oscillator, and incubated at room temperature in darkness for 30 min or 3.5 h. Ni2+ chelate acceptor and streptavidin donor beads were prepared as a mixture in a 1:300 dilution (0.007 mg/mL final assay concentration, added to the plates and incubated for a further 30 min at room temperature. Plates were read using a SynergyTM 2 MultiMode Microplate Reader using the inbuilt AlphaScreen™ 384 ProxiPlate function: excitation 680 nm, 0.18 sec; emission […]\n(§13) Table S18. Composition of assay buffer used in AlphaScreen™ experiments, adjusted to pH 7.6 using an aqueous NaOH […]\n(§14) Reagent Composition Mass (mg) for 50 mL\n(§15) 50 mM DMSO stock solutions of the compounds were serially diluted, and dispensed into wells (5 μL).\n(§16) The protein-peptide mixes (7 μL) for each combination were prepared following the specified final assay concentration (Table S19), and dispensed into wells. Assay beads (8 μL) were added to attain a final assay volume of 20 μL. Dose response curves were obtained for each compound in triplicate, with serial 1:2 dilutions. Data was processed by fitting a four-parameter equation (Equation 2) to calculate IC50 values using Prism software.\n(§17) Table S19. Final assay concentrations of each peptide-protein combination.\n(§18) Protein Peptide Protein FAC (nM) Peptide FAC (nM)\n(§19) Response = Bottom + Top − Bottom"}, "BRD4(1)^L94C [4]": {"target": "T1, BRD4(1)^L94C", "test": "Protein LCMS labeling assay 1", "assay_type": "binding", "details": "50 μM compound, 10 µM protein, 37 °C, mean of three ± s.e.m., ND = not detectable", "experimental": "as §1, §2, §3, §4, §5, §6, §7"}, "BRD4(1)^WT [5]": {"target": "T2, BRD4(1)^WT", "test": "AlphaScreen H4_1–20(KAc)4 peptide displacement", "assay_type": "binding", "details": "4 h incubation at RT; mean of three ± s.e.m.", "experimental": "as §8, §9, §10, §11, §12, §13, §14, §15, §16, §17, §18, §19"}, "BRD4(1)^WT [6]": {"target": "T2, BRD4(1)^WT", "test": "Fluorescent labeling of purified protein (CuAAC with TAMRA-PEG3-azide, in-gel fluorescence)", "assay_type": "binding", "details": "50 μM probe, 10 μM protein, 4 h, 37 °C, then CuAAC 1 h", "experimental": "(§20) When 28, 29, 30, and 42 were incubated with either purified BRD4(1)^L94C or BRD4(1)^WT and subjected to a copper(I)-catalyzed alkyne–azide click reaction (CuAAC) reaction with the fluorescent TAMRA-PEG3-azide dye, all clickable probes labeled the mutant protein and could be visualized using fluorescence imaging of a gel (Figure 6).\n(§21) Figure 6 Clickable probes 28, 29, 30, and 42 covalently label BRD4(1)^L94C and undergo a subsequent CuAAC reaction with TAMRA-PEG3 azide to fluorescently label the protein, as shown by in-gel fluorescence imaging. Compounds 28, 29, 30, 41, and 42 (50 μM) were incubated with purified BRD4(1)^L94C or BRD4(1)^WT (10 μM) for 4 h at 37 °C, followed by CuAAC reaction with TAMRA-PEG3 azide for 1 h and separation of components by SDS-PAGE. For all compounds other than 30, only labeling of BRD4(1)^L94C was observed.\nas §15\nThe protein-peptide mixes (7 μL) for each combination were prepared following the specified final assay concentration (Table S19), and dispensed into wells. […]\nAssays were performed in 1.5 mL Eppendorf tubes at room temperature, in the dark, and gently shaken, unless otherwise stated. […] Data was analysed and processed using MassLynx. […]\nGels were imaged for fluorescence using Bio-rad molecular imager and then stained for 15 min with […]"}, "BRD4(1)^L94C [7]": {"target": "T1, BRD4(1)^L94C", "test": "Fluorescent labeling of purified protein (CuAAC with TAMRA-PEG3-azide, in-gel fluorescence)", "assay_type": "binding", "details": "50 μM probe, 10 μM protein, 4 h, 37 °C, then CuAAC 1 h", "experimental": "as §20\nas §21, with “observed. […]” for “observed.”\nFluorescent labeling of purified proteins\nAssays were performed in 1.5 mL Eppendorf tubes at 37 °C, and gently shaken, unless otherwise stated.\nThe desired click probe (50 µM) was incubated with protein (10 µM) in protein LCMS buffer for 4 h, after which TAMRA-PEG3-Azide (200 µM), TCEP·HCl (1 mM), TBTA (100 µM), and CuSO4 (1 mM) were added and incubated for a further 1 h at room temperature in the dark. A 25 µL sample of the […]\nreaction mix was taken and 8 µL of Lamelli buffer added, and the samples denatured by heating at 95 °C for 10 min. Samples were separated by gel electrophoresis on NuPAGE™ 4–12%, Bis-Tris precast polyacrylamide gels (Thermofisher). Following electrophoresis, gels were stained for 15 min with InstantBlueTM Coomasie® stain (Abcam), destained, and imaged using Bio-rad molecular imager.\nBio-rad Image Lab 6.1 was used to process the data. […]\nInstantBlueTM Coomasie® stain (Abcam), destained, and imaged using Bio-rad molecular imager. […]\nMEM media. Cells were then harvested and lysed using the previously described protocol above. […]"}}, "note": "Where “and” joins values, the source holds several entries; their conditions need not be identical. Identical values can stand only once.", "data": [{"smiles": "Cc1noc(C)c1-c1ccccc1", "note": "[4-phenyl-3,5-dimethylisoxazole]", "values": [{"measurement": "IC50", "setting": "BRD4(1)", "result": 50, "unit": "µM"}]}, {"smiles": "O=C(CCl)Nc1nc(-c2cccs2)cs1", "note": "[Compound 26]", "values": [{"measurement": "Labeling of BRD4(1)^L94C, labeling assay 2", "setting": "BRD4(1)^L94C [1]; chloroacetamide fragment 50 μM", "result": 27, "unit": "%"}]}, {"smiles": "C=CC(=O)Nc1ccc(N2CCCC2=O)c(OC)c1", "note": "[Compound 27]", "values": [{"measurement": "Labeling of BRD4(1)^L94C, labeling assay 2", "setting": "BRD4(1)^L94C [1]; acrylamide fragment 200 μM", "result": 89, "unit": "%"}, {"measurement": "Labeled Protein (%) WT 4 h", "setting": "BRD4(1)^WT [2]", "result": "no covalent binding"}, {"measurement": "IC50", "setting": "BRD4(1)^L94C [3]; IC50 (μM) L94C 1 h, 1 h incubation at RT", "result": "15.5 ± 3.2", "unit": "µM"}, {"measurement": "IC50", "setting": "BRD4(1)^L94C [3]; IC50 (μM) L94C 4 h, 4 h incubation at RT", "result": "2.48 µM and 2.5 µM"}, {"measurement": "Labeled Protein (%) L94C 1 h", "setting": "BRD4(1)^L94C [4]; 1 h", "result": "17 ± 1.0", "unit": "%"}, {"measurement": "Labeled Protein (%) L94C 4 h", "setting": "BRD4(1)^L94C [4]", "result": "61% and 61 ± 2.5%"}, {"measurement": "IC50", "setting": "BRD4(1)^WT [5]", "result": "> 100", "unit": "µM"}]}, {"smiles": "C#CCN(C)C/C=C/C(=O)Nc1ccc(N2CCCC2=O)c(OC)c1", "note": "[Compound 41]", "values": [{"measurement": "Labeling of purified BRD4(1)^WT, in-gel fluorescence", "setting": "BRD4(1)^WT [6]", "result": "no labeling"}, {"measurement": "Labeled Protein (%) L94C 4 h", "setting": "BRD4(1)^L94C [4]", "result": "2% and 2.0 ± 0.0%"}, {"measurement": "Labeling of purified BRD4(1)^L94C, in-gel fluorescence", "setting": "BRD4(1)^L94C [7]", "result": "no labeling"}]}]}
